Legend:
[1] = Evaluation of light fastness-2 (OD value of printed portion after 400 hours xenon fadeometer); format: physicochemical; conditions: for (A)-2 light fastness-2: ink prepared as in Example 1 from the salt named in the row, OD value of printed portion after 400 hours xenon fadeometer
Procedure: (§1) The prepared ink was filled in an ink cartridge for a piezo-type ink-jet printer EM-930C (manufactured by Seiko Epson). The printing was performed with this printer, and the light fastness was evaluated. Further, the storage stability of the ink was evaluated.
(A)-2 Evaluation of Light Fastness-2
Printing density (OD value) was measured after irradiating a printed-portion with light for 400 hours using axenon fadeometer (manufactured by Suga Shikenki), and the light fastness was evaluated.

[2] = Evaluation of moisture resistance (image-recorded paper at 40° C. and humidity 85%, visual observation); format: physicochemical; conditions: for (B) moisture resistance: image-recorded paper at 40° C. and humidity 85%, visually observed
[3] = Evaluation of storage stability of ink (40° C. for 3 months, insoluble matter and clogging); format: physicochemical; conditions: recording liquid stored at 40° C. for 3 months; for (C) storage stability: insoluble matter and clogging
Procedure: as §1
(C) Evaluation of Storage Stability of Ink:
After a recording liquid was stored at 40° C. for 3 months, it was observedwhether or not an insoluble matterwas precipitated, and whether or not clogging occurred after continuous recording with the foregoing printer for a long period of time.

[4] = Solubility in water of the salt
[5] = Evaluation of light fastness-1 (OD value of printed portion after 100 hours xenon fadeometer); format: physicochemical; conditions: ink prepared as in Example 1 from the salt named in the row; OD value of printed portion after 100 hours xenon fadeometer
Procedure: as §1
(A)-1 Evaluation of Light Fastness-1
Printing density (OD value) was measured after irradiating a printed portion with light for 100 hours using a xenon fadeometer (manufactured by Suga Shikenki) to evaluate the light fastness.

## C[N+](C)(C)C.C[N+](C)(C)C.Cc1c(N=Nc2cc(C(=O)[O-])ccc2C(=O)[O-])c(O)[nH]c(=O)c1C#N
[1]
  (A)-2 light fastness-2: ♯
[2]
  (B) moisture resistance: ο
[3]
  (C) storage stability: ο
[4]; % by weight
  Solubility in water: ≥ 3%

## C[N+](C)(C)C.C[N+](C)(C)C.C[N+](C)(C)C.C[N+](C)(C)C.Cc1c(N=Nc2cc(C(=O)[O-])ccc2C(=O)[O-])c(O)n(CCNc2nc(Cl)nc(NCCn3c(O)c(N=Nc4cc(C(=O)[O-])ccc4C(=O)[O-])c(C)c(C#N)c3=O)n2)c(=O)c1C#N
[5]
  (A)-1 light fastness-1: ⊚
[1]
  (A)-2 light fastness-2: ∘
[2]
  (B) moisture resistance: ⊚
[3]
  (C) storage stability: ∘
[4]; % by weight
  Solubility in water: ≥ 5%

## Cc1c(N=Nc2cccc(C(=O)O)c2C(=O)O)c(O)[nH]c(=O)c1C#N [Compound No. 1]
[5]
  (A)-1 light fastness-1: ⊚
[1]
  (A)-2 light fastness-2: ⊚
[2]
  (B) moisture resistance: ◯
[3]
  (C) storage stability: ◯
[4]; salt type M1 to M4
  Solubility in water: >3%

## Cc1c(N=Nc2cc(C(=O)O)ccc2C(=O)O)c(O)[nH]c(=O)c1C#N [Compound No. 11]
[5]
  (A)-1 light fastness-1: ⊚
[1]
  (A)-2 light fastness-2: ⊚
[2]
  (B) moisture resistance: ◯
[3]
  (C) storage stability: ◯
[4]; salt type M1 to M4
  Solubility in water: >3%

## Cc1c(C(=O)O)ccc(C(=O)O)c1N=Nc1c(O)[nH]c(=O)c(C#N)c1C [Compound No. 24]
[5]
  (A)-1 light fastness-1: ⊚
[1]
  (A)-2 light fastness-2: ◯
[2]
  (B) moisture resistance: ◯
[3]
  (C) storage stability: ◯
[4]; salt type M1 to M4
  Solubility in water: >5%

## Cc1c(N=Nc2cc(Cl)cc(C(=O)O)c2C(=O)O)c(O)[nH]c(=O)c1C#N [compound 3]
[5]
  (A)-1 light fastness-1: ⊚
[1]
  (A)-2 light fastness-2: ⊚
[2]
  (B) moisture resistance: ◯
[3]
  (C) storage stability: ◯
[4]; salt type M1 to M4
  Solubility in water: >3%

## Cc1c(N=Nc2cc(S(=O)(=O)O)c(C(=O)O)cc2C(=O)O)c(O)[nH]c(=O)c1C#N [compound 7]
[5]
  (A)-1 light fastness-1: ⊚
[1]
  (A)-2 light fastness-2: ⊚
[2]
  (B) moisture resistance: Δ
[3]
  (C) storage stability: ◯
[4]; salt type M1 to M4
  Solubility in water: >10%

## CNC(=O)c1cc(C(=O)O)c(N=Nc2c(O)[nH]c(=O)c(C#N)c2C)cc1C(=O)O [compound 14]
[5]
  (A)-1 light fastness-1: ⊚
[1]
  (A)-2 light fastness-2: ⊚
[2]
  (B) moisture resistance: ◯
[3]
  (C) storage stability: ◯
[4]; salt type M1 to M4
  Solubility in water: >3%

## Cc1c(N=Nc2c(C(=O)O)cccc2C(=O)O)c(O)[nH]c(=O)c1C#N [compound 16]
[5]
  (A)-1 light fastness-1: ⊚
[1]
  (A)-2 light fastness-2: ⊚
[2]
  (B) moisture resistance: Δ
[3]
  (C) storage stability: ◯
[4]; salt type M1 to M4
  Solubility in water: >5%

## Cc1c(N=Nc2cc(C(=O)O)ccc2C(=O)O)c(O)n(CCO)c(=O)c1C#N [compound 37]
[5]
  (A)-1 light fastness-1: ⊚
[1]
  (A)-2 light fastness-2: ⊚ and Δ
[2]
  (B) moisture resistance: ◯
[3]
  (C) storage stability: ◯ and Δ

## Cc1c(N=Nc2c(C(=O)O)cccc2C(=O)O)c(O)n(C(O)CO)c(=O)c1C#N (centres unmarked) [compound 43]
[5]
  (A)-1 light fastness-1: ⊚
[1]
  (A)-2 light fastness-2: ⊚
[2]
  (B) moisture resistance: Δ
[3]
  (C) storage stability: ◯
[4]; salt type M1 to M4
  Solubility in water: >5%

## Cc1c(N=Nc2cccc(C(=O)O)c2C(=O)O)c(O)n(C(=O)O)c(=O)c1C#N [compound 46]
[5]
  (A)-1 light fastness-1: ⊚
[1]
  (A)-2 light fastness-2: Δ
[2]
  (B) moisture resistance: ◯
[3]
  (C) storage stability: Δ
[4]; salt type M1 to M4
  Solubility in water: >5%

## Cc1c(N=Nc2cccc(C(=O)O)c2C(=O)O)c(O)n(CCCC(=O)O)c(=O)c1C#N [compound 48]
[5]
  (A)-1 light fastness-1: ⊚
[1]
  (A)-2 light fastness-2: ◯
[2]
  (B) moisture resistance: ◯
[3]
  (C) storage stability: ◯
[4]; salt type M1 to M4
  Solubility in water: >5%

## Cc1c(N=Nc2cccc(C(=O)O)c2C(=O)O)c(O)n(C(C(=O)O)C(=O)O)c(=O)c1C#N [compound 52]
[5]
  (A)-1 light fastness-1: ⊚
[1]
  (A)-2 light fastness-2: ⊚ and Δ
[2]
  (B) moisture resistance: Δ and ◯
[3]
  (C) storage stability: ◯ and Δ

## Cc1c(N=Nc2cccc(C(=O)O)c2C(=O)O)c(O)n(Cc2ccc(C(=O)O)cc2)c(=O)c1C#N [compound 58]
[5]
  (A)-1 light fastness-1: ⊚
[1]
  (A)-2 light fastness-2: ◯
[2]
  (B) moisture resistance: Δ
[3]
  (C) storage stability: ◯
[4]; salt type M1 to M4
  Solubility in water: >5%

## Cc1c(N=Nc2cc(C(=O)O)ccc2C(=O)O)c(O)n(CC(=O)O)c(=O)c1C#N [compound 77]
[5]
  (A)-1 light fastness-1: ⊚
[1]
  (A)-2 light fastness-2: ⊚
[2]
  (B) moisture resistance: Δ
[3]
  (C) storage stability: ◯
[4]; salt type M1 to M4
  Solubility in water: >5%

## Cc1c(N=Nc2cc(C(=O)O)ccc2C(=O)O)c(O)n(CCC(=O)O)c(=O)c1C#N [compound 78]
[5]
  (A)-1 light fastness-1: ⊚
[1]; NH(CH2CH=CH2)3 salt form
  (A)-2 light fastness-2: ◯
[1]; Na salt form
  (A)-2 light fastness-2: ⊚
[2]
  (B) moisture resistance: ◯
[3]
  (C) storage stability: ◯

## Cc1c(N=Nc2cc(C(=O)O)ccc2C(=O)O)c(O)n(Cc2ccc(C(=O)O)c(C(=O)O)c2)c(=O)c1C#N [compound 92]
[5]
  (A)-1 light fastness-1: ⊚
[1]
  (A)-2 light fastness-2: ⊚⊚
[2]
  (B) moisture resistance: ⊚
[3]
  (C) storage stability: ◯

## Cc1c(N=Nc2c(C(=O)O)cccc2C(=O)O)c(O)n(CCC(=O)O)c(=O)c1C#N [compound 95]
[5]
  (A)-1 light fastness-1: ⊚
[1]
  (A)-2 light fastness-2: ⊚ and Δ
[2]
  (B) moisture resistance: Δ and ◯
[3]
  (C) storage stability: ◯ and Δ

## Cc1c(N=Nc2cccc(C(=O)O)c2C(=O)O)c(O)n(CS(=O)(=O)O)c(=O)c1C#N [compound 105]
[5]
  (A)-1 light fastness-1: ⊚
[1]
  (A)-2 light fastness-2: ◯
[2]
  (B) moisture resistance: Δ
[3]
  (C) storage stability: ◯
[4]; salt type M1 to M4
  Solubility in water: >5%

## Cc1c(N=Nc2cccc(C(=O)O)c2C(=O)O)c(O)n(CCS(=O)(=O)O)c(=O)c1C#N [compound 106]
[5]
  (A)-1 light fastness-1: ⊚
[1]
  (A)-2 light fastness-2: ⊚ and Δ
[2]
  (B) moisture resistance: Δ and ◯
[3]
  (C) storage stability: ◯ and Δ
[4]; salt type M1 to M4
  Solubility in water: >5%

## Cc1c(N=Nc2cc(C(=O)O)ccc2C(=O)O)c(O)n(CCS(=O)(=O)O)c(=O)c1C#N [compound 136]
[5]
  (A)-1 light fastness-1: ⊚
[1]
  (A)-2 light fastness-2: ⊚ and Δ and ◯
[2]
  (B) moisture resistance: Δ and ◯
[3]
  (C) storage stability: ◯ and Δ

## Cc1c(C(=O)O)ccc(C(=O)O)c1N=Nc1c(C)c(C#N)c(=O)n(CCCS(=O)(=O)O)c1O [compound 137]
[5]
  (A)-1 light fastness-1: ⊚
[1]
  (A)-2 light fastness-2: ⊚
[2]
  (B) moisture resistance: Δ
[3]
  (C) storage stability: ◯
[4]; salt type M1 to M4
  Solubility in water: >5%

## Cc1c(N=Nc2cc(C(=O)O)ccc2C(=O)O)c(O)n(-c2cc(S(=O)(=O)O)cc(S(=O)(=O)O)c2)c(=O)c1C#N [compound 142]
[5]
  (A)-1 light fastness-1: ⊚
[1]
  (A)-2 light fastness-2: ◯
[2]
  (B) moisture resistance: ◯
[3]
  (C) storage stability: ◯
[4]; salt type M1 to M4
  Solubility in water: >8%

## Cc1c(N=Nc2cc(C(=O)O)ccc2C(=O)O)c(O)n(Cc2cc(S(=O)(=O)O)cc(S(=O)(=O)O)c2)c(=O)c1C#N [compound 149]
[5]
  (A)-1 light fastness-1: ⊚
[1]
  (A)-2 light fastness-2: ◯
[2]
  (B) moisture resistance: ◯
[3]
  (C) storage stability: ◯
[4]; salt type M1 to M4
  Solubility in water: >10%

## Cc1c(C(=O)O)ccc(C(=O)O)c1N=Nc1c(C)c(C#N)c(=O)n(CC(O)CC(=O)O)c1O (centres unmarked) [compound 164]
[5]
  (A)-1 light fastness-1: ⊚
[1]
  (A)-2 light fastness-2: ◯
[2]
  (B) moisture resistance: ◯
[3]
  (C) storage stability: ◯
[4]; salt type M1 to M4
  Solubility in water: >8%

## Cc1c(N=Nc2cc(S(=O)(=O)O)ccc2C(=O)O)c(O)n(CCC(=O)O)c(=O)c1C#N [compound 218]
[5]
  (A)-1 light fastness-1: ⊚
[1]
  (A)-2 light fastness-2: ⊚
[3]
  (C) storage stability: ◯
[4]; salt type M1 to M4
  Solubility in water: >5%

## Cc1c(N=Nc2cc(C(=O)[O-])ccc2C(=O)[O-])c(O)[nH]c(=O)c1C#N.[K+].[K+] [potassium salt of compound No. 11]
[1]; ink with 3% dye printed with ink-jet printer EM-930C, 400 hours xenon fadeometer, OD value vs before irradiation
  Evaluation of light fastness-2: ♯
[2]; image-recorded paper at 40° C., humidity 85%, visual observation
  Evaluation of moisture resistance: ο
[3]; precipitation and clogging
  Evaluation of ink storage stability: ο
[4]; % by weight
  Solubility in water: ≥ 3%

## Cc1c(N=Nc2cc(C(=O)[O-])ccc2C(=O)[O-])c(O)n(CCNc2nc(Cl)nc(NCCn3c(O)c(N=Nc4cc(C(=O)[O-])ccc4C(=O)[O-])c(C)c(C#N)c3=O)n2)c(=O)c1C#N.[K+].[K+].[K+].[K+] [potassium salt of compound No. 245]
[5]
  (A)-1 light fastness-1: ⊚
[1]
  (A)-2 light fastness-2: ∘
[2]
  (B) moisture resistance: ⊚
[3]
  (C) storage stability: ∘
[4]; % by weight
  Solubility in water: ≥ 3%

— patent publication US20040231558A1, “Water-color ink” (priority 2001, published 2004)
